Experiment [1] relates to Wnt activity (Sp5-Luc reporter in SW480 cells). Briefly: Screening assay for Wnt activity: Sp5-Luc reporter gene assay in SW480 colon carcinoma cells. It is filed as cell-based, human. Particulars: Homo sapiens, 36 to 48 hours. A digest of the protocol:
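EC50 values come from a variable-slope four-parameter fit of luminescence normalized to DMSO-only wells. The read-out follows 36–48 h incubation at 37 °C, 5% CO2, in DMEM containing 1% fetal bovine serum. Cells are hygromycin-selected SW480 stably expressing firefly luciferase under a Wnt-responsive Sp5 promoter (eight TCF/LEF sites).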

A further experiment deals with DYRK1A kinase (Homo sapiens (Human), UniProt Q13627). Briefly: DYRK1A kinase assay (Ser/Thr 18 peptide Z-lyte FRET). It is filed as biochemical. Particulars: read-out: EC50 (method: IC50). The gist of the method: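 Kinase reactions with compound ran 1 h at room temperature in duplicate, and development reagent was then added for another hour.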
A further experiment addresses GSK3β kinase (Homo sapiens (Human), UniProt P49841). The experiment can be described thus: GSK3β kinase assay (Ser/Thr 09 peptide Z-lyte FRET). To be noted: read-out: EC50 (method: IC50). It is filed as biochemical. A digest of the protocol:
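Non-radioactive Z-lyte FRET read-out, kinase activity expressed as coumarin/fluorescein emission ratio. Compounds incubated with the reaction mixture one hour at room temperature in duplicate, then development buffer added for another hour. IC50 from non-linear regression of dose-response curves.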

In experiment [2] the test system is SW480 colon carcinoma cells. The experiment can be described thus: Cell viability assay (CellTiter-Glo) in SW480 colon carcinoma cells. It is filed as cell-based, human. To be noted: Homo sapiens, 96 h, four days. The gist of the method:
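Viability was taken from CellTiter-Glo ATP luminescence, read about 12 min after reagent addition, relative to DMSO controls. The cells were Sp5-Luc reporter SW480 colon carcinoma cells, 2,000/well in 1% FBS DMEM, exposed to compound for four days at 37 °C.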

For experiment [3], the system named is primary human fibroblasts derived from IPF patients (LL29 cells). Briefly: Inhibition of the fibrotic process: αSMA staining in TGF-β1 treated LL29 fibroblasts. It is filed as cell-based. Particulars: Homo sapiens, Fibroblast, 96 h; LL29 cells, TGF-β1 20 ng/mL, 4 days, % αSMA positive cells. The gist of the method:
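LL29 fibroblasts from IPF patients, in F12 medium with 1% FBS, treated with TGF-β1 plus compound; TGF-β1 with DMSO as positive control, DMSO alone as negative control. After 4 days' incubation, SYTOX green nucleic acid stain added at 1 μM final, 30 min at room temperature.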

The test system of another experiment is IL-6. The experiment can be described thus: IL-6 inhibition in LPS-stimulated human peripheral blood mononuclear cells (HTRF). It is filed as cell-based. Particulars: Homo sapiens, PBMC; for EC50: huPBMCs, LPS 50 ng/mL, 22 hours, IL-6 HTRF; for inhibition at 10 µM: read-out: percent inhibition at 10 μM. A digest of the protocol: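 HTRF 665/620 nm ratio, read after 3 h antibody incubation at room temperature, quantified IL-6 released by fresh human PBMCs (1×10e6 cells/mL, 1% FBS-RPMI). The cells got compound, then 50 ng/mL LPS at 2 h, followed by a further 22 h at 37° C. EC50 came from DMSO-normalized readings run in duplicate.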

The results in this text go back to US10934297B2, “5-heteroaryl substituted indazole-3-carboxamides and preparation and use thereof” (Samumed, LLC, priority 2018, dated 2021).

Sequence of GSK3β kinase (P49841 whole entry): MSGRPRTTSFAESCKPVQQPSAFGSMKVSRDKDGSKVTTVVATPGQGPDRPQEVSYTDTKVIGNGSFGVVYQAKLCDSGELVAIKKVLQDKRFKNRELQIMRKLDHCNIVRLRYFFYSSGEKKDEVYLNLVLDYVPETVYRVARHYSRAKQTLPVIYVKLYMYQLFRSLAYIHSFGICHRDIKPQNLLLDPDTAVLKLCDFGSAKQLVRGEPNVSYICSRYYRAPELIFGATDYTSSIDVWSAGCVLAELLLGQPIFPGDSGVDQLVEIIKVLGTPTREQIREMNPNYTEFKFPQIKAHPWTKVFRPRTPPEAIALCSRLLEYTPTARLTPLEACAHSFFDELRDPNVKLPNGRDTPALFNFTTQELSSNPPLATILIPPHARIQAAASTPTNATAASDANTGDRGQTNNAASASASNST

A word on the EC50: it is the midpoint of the concentration-response curve. For orientation: IC50 means the midpoint of a concentration-inhibition curve. Take `Cn1cc(-c2ccc3[nH]nc(C(=O)Nc4ccc(CN5CCCC5)cc4F)c3c2)cn1` [Compound 73, N-(2-Fluoro-4-(pyrrolidin-1-ylmethyl)phenyl)-5-(1-methyl-1H-pyrazol-4-yl)-1H-indazole-3-carboxamide]: the EC50 in experiment [1] came to 1550 nM; in experiment [2] it was 6970 nM; in experiment [3], 799 nM; in the experiment with IL-6, 1160 nM. Moreover, the values for the IC50 at DYRK1A kinase and at GSK3β kinase were 3 nM and 68 nM, respectively.
For orientation: inhibition means the percentage by which the read-out fell short of the control. Regarding `Cn1cc(-c2ccc3[nH]nc(C(=O)Nc4ccc(CN5CCCC5)cc4O)c3c2)cn1` [Compound 74, N-(2-Hydroxy-4-(pyrrolidin-1-ylmethyl)phenyl)-5-(1-methyl-1H-pyrazol-4-yl)-1H-indazole-3-carboxamide], the EC50 in experiment [1] was 2170 nM; in experiment [2], above 10000 nM; in experiment [3], 35 nM; with IL-6, above 10000 nM. Besides, the IC50 on DYRK1A kinase came to 305 nM; at GSK3β kinase, 878 nM. Further, the inhibition at 10 µM in the experiment on IL-6 is 22.1%.
`Cn1cc(-c2cc3c(C(=O)Nc4ccc(CN5CCC(F)CC5)cc4)n[nH]c3cc2F)cn1` [Compound 75, 6-Fluoro-N-(4-((4-fluoropiperidin-1-yl)methyl)phenyl)-5-(1-methyl-1H-pyrazol-4-yl)-1H-indazole-3-carboxamide]: the EC50 was found to be 542 nM in experiment [1], 1100 nM in experiment [2], 159 nM in experiment [3] and 1160 nM with IL-6. In addition, the IC50 at DYRK1A kinase amounted to 3 nM; at GSK3β kinase, 39 nM.
Take `CN1CCN(Cc2ccc(NC(=O)c3n[nH]c4cc(F)c(-c5cnn(C)c5)cc34)cc2)CC1` [Compound 78, 6-Fluoro-5-(1-methyl-1H-pyrazol-4-yl)-N-(4-((4-methylpiperazin-1-yl)methyl)phenyl)-1H-indazole-3-carboxamide]: the EC50 stood at 249 nM in experiment [1], 454 nM in experiment [2], 545 nM in experiment [3] and 1140 nM with IL-6. Further, the IC50 on DYRK1A kinase was 1 nM; on GSK3β kinase it was 18 nM.
For the compound `CN1CCC(Oc2ccc(NC(=O)c3n[nH]c4cc(F)c(-c5cnn(C)c5)cc34)cc2)CC1` [Compound 79, 6-Fluoro-5-(1-methyl-1H-pyrazol-4-yl)-N-(4-((1-methylpiperidin-4-yl)oxy)phenyl)-1H-indazole-3-carboxamide], the EC50 in experiment [1] was determined as 266 nM; in experiment [2], 140 nM; in experiment [3], 61 nM; with IL-6 it was 1760 nM. Besides, the IC50 worked out at 2 nM at DYRK1A kinase and 60 nM on GSK3β kinase.
Turning to `CN1CCC(Oc2ccc(NC(=O)c3n[nH]c4cc(F)c(-c5cnn(C(F)F)c5)cc34)cc2)CC1` [Compound 80, 5-(1-(Difluoromethyl)-1H-pyrazol-4-yl)-6-fluoro-N-(4-((1-methylpiperidin-4-yl)oxy)phenyl)-1H-indazole-3-carboxamide], the EC50 was found to be 8520 nM in experiment [1], 5000 nM in experiment [2], 1300 nM in experiment [3] and 3440 nM with IL-6. For the same compound, the IC50 is 19 nM on DYRK1A kinase and 783 nM on GSK3β kinase.
Take `Cc1c(-c2cc3c(C(=O)Nc4ccc(OC5CCN(C)CC5)cc4)n[nH]c3cc2F)cnn1C` [Compound 81, 5-(1,5-Dimethyl-1H-pyrazol-4-yl)-6-fluoro-N-(4-((1-methylpiperidin-4-yl)oxy)phenyl)-1H-indazole-3-carboxamide]: the EC50 stood at 115 nM in experiment [1], 139 nM in experiment [2], 341 nM in experiment [3] and 1060 nM in the experiment on IL-6. Further, the IC50 at DYRK1A kinase is 1 nM; at GSK3β kinase it was 35 nM.
In the case of `CN1CCC(Nc2ccc(NC(=O)c3n[nH]c4cc(F)c(-c5cnn(C)c5)cc34)cc2)CC1` [Compound 83, 6-Fluoro-5-(1-methyl-1H-pyrazol-4-yl)-N-(4-((1-methylpiperidin-4-yl)amino)phenyl)-1H-indazole-3-carboxamide], the EC50 is 275 nM in experiment [1], 220 nM in experiment [2], 250 nM in experiment [3] and 1240 nM in the experiment on IL-6. In addition, the IC50 at DYRK1A kinase was found to be 2 nM; at GSK3β kinase, 74 nM.
In the case of `Cn1cc(-c2cc3c(C(=O)Nc4ccc5c(c4)CNC5)n[nH]c3cc2F)cn1` [Compound 84, 6-Fluoro-N-(isoindolin-5-yl)-5-(1-methyl-1H-pyrazol-4-yl)-1H-indazole-3-carboxamide], the EC50 was 1340 nM in experiment [1], 300 nM in experiment [2], 1690 nM in experiment [3] and above 10000 nM with IL-6. Also, the IC50 on DYRK1A kinase is 2 nM; on GSK3β kinase it was 21 nM. The inhibition at 10 µM in the experiment on IL-6 amounted to 2.1%.
As to `CN1Cc2ccc(NC(=O)c3n[nH]c4cc(F)c(-c5cnn(C)c5)cc34)cc2C1` [Compound 85, 6-Fluoro-5-(1-methyl-1H-pyrazol-4-yl)-N-(2-methylisoindolin-5-yl)-1H-indazole-3-carboxamide], the EC50 came out at 566 nM in experiment [1], 203 nM in experiment [2], 904 nM in experiment [3] and 2990 nM in the experiment on IL-6. For the same compound, the IC50 at DYRK1A kinase came to 2 nM; on GSK3β kinase, 35 nM.
On to `O=C(Nc1ccc(OC(F)F)nc1)c1n[nH]c2ccc(-c3cnn(C4CNC4)c3)cc12` [Compound 86, 5-(1-(Azetidin-3-yl)-1H-pyrazol-4-yl)-N-(6-(difluoromethoxy)pyridin-3-yl)-1H-indazole-3-carboxamide], for which the EC50 in experiment [1] was 1840 nM; in experiment [2], above 10000 nM; in experiment [3], 1190 nM; with IL-6, above 10000 nM. The IC50 at DYRK1A kinase stood at 98 nM; at GSK3β kinase, 354 nM. The inhibition at 10 µM in the experiment with IL-6 is 14.8%.
Take `O=C(Nc1ccc(OC(F)F)nc1)c1n[nH]c2ccc(-c3cnn(CCN4CCCC4)c3)cc12` [Compound 89, N-(6-(Difluoromethoxy)pyridin-3-yl)-5-(1-(2-(pyrrolidin-1-yl)ethyl)-1H-pyrazol-4-yl)-1H-indazole-3-carboxamide]: the EC50 in experiment [1] is 4340 nM; in experiment [2], 4600 nM; in experiment [3] it was 1200 nM; in the experiment with IL-6 it was 6590 nM. The IC50 stood at 304 nM at DYRK1A kinase and 656 nM on GSK3β kinase.
For `O=C(Nc1ccc(OC(F)F)nc1)c1n[nH]c2ccc(-c3cnn(CCN4CCOCC4)c3)cc12` [Compound 90, N-(6-(Difluoromethoxy)pyridin-3-yl)-5-(1-(2-morpholinoethyl)-1H-pyrazol-4-yl)-1H-indazole-3-carboxamide], the EC50 in experiment [1] is 2130 nM; in experiment [2], 7390 nM; in experiment [3] it was above 10000 nM; with IL-6, above 10000 nM. Besides, the half-inhibitory concentration (IC50) on DYRK1A kinase came to 329 nM; on GSK3β kinase it was 403 nM. Further, the inhibition at 10 µM in the experiment with IL-6 turned out to be 37%.
On to `O=C(Nc1ccc(N2CCCC2)nc1)c1n[nH]c2ccc(-c3cnn(C4CC4)c3)cc12` [Compound 91, 5-(1-Cyclopropyl-1H-pyrazol-4-yl)-N-(6-(pyrrolidin-1-yl)pyridin-3-yl)-1H-indazole-3-carboxamide], for which the EC50 in experiment [1] was 1130 nM; in experiment [2], 2100 nM; in experiment [3] it was 1490 nM; with IL-6, above 10000 nM. The IC50 at DYRK1A kinase came to 50 nM; on GSK3β kinase it was 332 nM. Further, the inhibition at 10 µM in the experiment on IL-6 was determined as 53.6%.
